Experimental data from US20020192703A1, “Immunoassay reagents and methods for determination of LSD and LSD metabolites” (priority 1995, published 2002).
Where a name gives a salt, the structure may show the parent alone. Read-outs that look alike come from different tables or passages of the source.

How the values were obtained:
[1] = test system: monoclonal antibody 19A7; type: binding, mice
Procedure: Cross-reactivity was tested by spiking various potential cross-reactants into human urine containing a preservative.

[2] = Dilution analysis of sample containing LSD metabolite, CEDIA; type: binding; details: for LSD ng/ml CEDIA: LSD equivalents
Procedure: (§1) In the following experiment, the results of the CEDIA® are compared with those of the DPC assay, and with those obtained using the Abuscreen® radioimmunoassay by Roche. While the amount of metabolite in the sample is not known in absolute terms, the behavior is tested by dilution analysis. Results are given in terms of LSD equivalents.

[3] = Dilution analysis of sample containing LSD metabolite, Abuscreen RIA (Roche); type: binding; details: LSD equivalents
Procedure: as §1

[4] = Dilution analysis of sample containing LSD metabolite, DPC RIA; type: binding; details: LSD equivalents
Procedure: as §1

[5] = Concentration Added 500,000 ng/ml, 100 × observed dose / concentration added
[6] = Concentration Added 500,000 ng/ml, in human urine
[7] = Concentration Added 10,000 ng/ml, 100 × observed dose / concentration added
[8] = Concentration Added 10,000 ng/ml, in human urine
[9] = Concentration Added 100,000 ng/ml, 100 × observed dose / concentration added
[10] = Concentration Added 100,000 ng/ml, in human urine
[11] = Concentration Added 50,000 ng/ml, 100 × observed dose / concentration added
[12] = Concentration Added 50,000 ng/ml, in human urine
[13] = sample containing the metabolite, essentially free of LSD parent by GC/MS, undiluted

SMILES: CC(N)Cc1ccccc1 (stereo not shown) [Amphetamine]
- % Cross-Reactivity [1, 5]: <0.00001%
- Concentration Observed [1, 6]: 0.0 ng/mL

SMILES: CC(=O)Oc1ccccc1C(=O)O [Acetylsalicylic Acid]
- % Cross-Reactivity [1, 5]: <0.00001%
- Concentration Observed [1, 6]: 0.0 ng/mL

SMILES: COc1ccc2c3c1O[C@H]1[C@@H](O)C=C[C@H]4[C@@H](C2)N(C)CC[C@@]341 [Codeine]
- % Cross-Reactivity [1, 5]: <0.00001%
- Concentration Observed [1, 6]: 0.0 ng/mL

SMILES: CN(C)CCc1c[nH]c2cccc(O)c12 [Psilocyn]
- % Cross-Reactivity [1, 7]: 0.00000%
- Concentration Observed [1, 8]: ≦0.01 ng/mL

SMILES: CCCCCc1cc(O)c2c(c1)OC(C)(C)[C@@H]1CCC(C(=O)O)=C[C@@H]21 [11-nor-Δ^9-THC-COOH]
- % Cross-Reactivity [1, 7]: <0.0001%
- Concentration Observed [1, 8]: 0.0 ng/mL

SMILES: N[C@@H](Cc1c[nH]c2ccccc12)C(=O)O [Tryptophan]
- % Cross-Reactivity [1, 9]: 0.00000%
- Concentration Observed [1, 10]: ≦0.01 ng/mL

SMILES: N[C@@H](Cc1cc(I)c(Oc2cc(I)c(O)c(I)c2)c(I)c1)C(=O)O [Levothyroxine (T4), Levothyroxine]
- % Cross-Reactivity [1, 11]: <0.0001%
- Concentration Observed [1, 12]: 0.0 ng/mL

SMILES: C[C@H]1O[C@@H](O[C@H]2[C@@H](O)C[C@H](O[C@H]3[C@@H](O)C[C@H](O[C@H]4CC[C@@]5(C)[C@H](CC[C@@H]6[C@@H]5C[C@@H](O)[C@]5(C)[C@@H](C7=CC(=O)OC7)CC[C@]65O)C4)O[C@@H]3C)O[C@@H]2C)C[C@H](O)[C@@H]1O [Digoxin]
- % Cross-Reactivity [1, 9]: <0.00001%
- Concentration Observed [1, 10]: 0.0 ng/mL

SMILES: CCCN(C)C(=O)[C@@H]1C=C2c3cccc4[nH]cc(c34)C[C@H]2N(C)C1 [d-LAMPA, Lysergic acid methyl-propyl amide]
- % Cross-Reactivity ([1]; Concentration Added 0.5 ng/ml, 100 × observed dose / concentration added): 58.7%
- Concentration Observed ([1]; Concentration Added 0.5 ng/ml, in human urine): 0.29 ng/mL

SMILES: CC[C@@H](CO)NC(=O)[C@@H]1C=C2c3cccc4c3c(cn4C)C[C@H]2N(C)C1 [Methysergide Maleate]
- % Cross-Reactivity [1, 11]: 0.00147%
- Concentration Observed [1, 12]: 0.74 ng/mL

SMILES: CCN(CC)C(=O)[C@@H]1C=C2c3cccc4c3C(O)(C[C@H]2N(C)C1)C(=O)N4 (stereo partly shown) [2oxo-3hydroxy LSD]
- % Cross-Reactivity ([1]; Concentration Added 30 ng/ml, 100 × observed dose / concentration added): 1.82%
- Concentration Observed ([1]; Concentration Added 30 ng/ml, in human urine): 0.55 ng/mL

SMILES: CNCCC(Oc1ccc(C(F)(F)F)cc1)c1ccccc1 (stereo not shown) [Fluoxetine]
- % Cross-Reactivity ([1]; Concentration Added 400000 ng/mL, 100 × observed dose / concentration added): 0.00012%
- Concentration Observed ([1]; Concentration Added 400000 ng/mL, in human urine): 0.48 ng/mL

SMILES: CN1C[C@H](C(=O)N[C@]2(C)O[C@@]3(O)[C@@H]4CCCN4C(=O)[C@H](Cc4ccccc4)N3C2=O)C[C@@H]2c3cccc4[nH]cc(c34)C[C@H]21 [Dihydroergotaimine]
- % Cross-Reactivity ([1]; Concentration Added 125,000 ng/ml, 100 × observed dose / concentration added): 0.00005%
- Concentration Observed ([1]; Concentration Added 125,000 ng/ml, in human urine): ≦0.01 ng/mL

SMILES: CN1[C@H]2CC[C@@H]1[C@@H](C(=O)O)[C@@H](O)C2 [Ecogonine]
- % Cross-Reactivity [1, 9]: 0.00000%
- Concentration Observed [1, 10]: ≦0.01 ng/mL

SMILES: c1ccc(C2(N3CCCCC3)CCCCC2)cc1 [Phencyclidine]
- % Cross-Reactivity [1, 5]: 0.00002%
- Concentration Observed [1, 6]: 0.11 ng/mL

SMILES: CCN(CC)C(=O)[C@@H]1C=C2c3cccc4c3C(O)(C[C@H]2N(C)C1)C(=O)N4 (stereo partly shown) [LSD Metabolite]
- recognition of the metabolite by reagents of the invention relative to the Abuscreen assay ([2]; CEDIA versus Abuscreen RIA): about 2.5 fold
- recognition of the metabolite by reagents of the invention relative to the DPC assay ([2]; CEDIA versus DPC RIA): about 10 fold
- LSD ng/ml CEDIA ([2]; metabolite sample diluted 1:3): 0.50 ng/mL
- LSD ng/ml CEDIA [2, 13]: 1.32 ng/mL
- LSD ng/ml Abuscreen RIA ([3]; metabolite sample diluted 1:3): 0.23 ng/mL
- LSD ng/ml Abuscreen RIA [3, 13]: 0.62 ng/mL
- LSD ng/ml DPC RIA ([4]; metabolite sample diluted 1:3): 0.03 ng/mL
- LSD ng/ml DPC RIA [4, 13]: 0.14 ng/mL

SMILES: C[C@H](CS)C(=O)N1CCC[C@H]1C(=O)O [Captopril]
- % Cross-Reactivity [1, 5]: <0.00001%
- Concentration Observed [1, 6]: 0.0 ng/mL

SMILES: C[C@@H](CO)NC(=O)[C@@H]1C=C2c3cccc4[nH]cc(c34)C[C@H]2N(C)C1 [Ergonovine]
- % Cross-Reactivity [1, 7]: 0.007%
- Concentration Observed [1, 8]: 0.58 ng/mL

SMILES: NCCc1c[nH]c2ccc(O)cc12 [Seretonine]
- % Cross-Reactivity ([1]; Concentration Added 1,000,000 ng/ml, 100 × observed dose / concentration added): 0.00000%
- Concentration Observed ([1]; Concentration Added 1,000,000 ng/ml, in human urine): ≦0.01 ng/mL

SMILES: CN1[C@H]2CC[C@@H]1[C@@H](C(=O)O)[C@@H](OC(=O)c1ccccc1)C2 [Benzoylecgonine]
- % Cross-Reactivity [1, 5]: <0.00001%
- Concentration Observed [1, 6]: 0.0 ng/mL

SMILES: CC(C)Cc1ccc(C(C)C(=O)O)cc1 (stereo not shown) [Ibuprofen]
- % Cross-Reactivity [1, 5]: <0.00001%
- Concentration Observed [1, 6]: 0.0 ng/mL

SMILES: CC(C)C[C@H]1C(=O)N2CCC[C@H]2[C@]2(O)O[C@](NC(=O)[C@@H]3C=C4c5cccc6[nH]cc(c56)C[C@H]4N(C)C3)(C(C)C)C(=O)N12 [Alpha Ergotryptine]
- % Cross-Reactivity [1, 5]: 0.00000%
- Concentration Observed [1, 6]: 0.25 ng/mL

SMILES: CN1CC[C@]23c4c5ccc(O)c4O[C@H]2[C@@H](O)C=C[C@H]3[C@H]1C5 [Morphine]
- % Cross-Reactivity [1]: <0.00001%
- Concentration Observed [1]: 0.0 ng/mL

SMILES: CN1C[C@H](CO)C=C2c3cccc4[nH]cc(c34)C[C@H]21 [Lysergol]
- % Cross-Reactivity ([1]; Concentration Added 5,000 ng/ml, 100 × observed dose / concentration added): 0.00034%
- Concentration Observed ([1]; Concentration Added 5,000 ng/ml, in human urine): 0.01 ng/mL

SMILES: CN[C@@H](C)Cc1ccccc1 [Methamphetamine]
- % Cross-Reactivity ([1]; Concentration Added 200000 ng/mL, 100 × observed dose / concentration added): 0.00019%
- Concentration Observed ([1]; Concentration Added 200000 ng/mL, in human urine): 0.45 ng/mL

SMILES: CN1C(=O)CN=C(c2ccccc2)c2cc(Cl)ccc21 [Diazepam]
- % Cross-Reactivity [1]: <0.00001%
- Concentration Observed [1]: 0.0 ng/mL

SMILES: CCOC(=O)[C@H](CCc1ccccc1)N[C@@H](C)C(=O)N1CCC[C@H]1C(=O)O [Enalapril]
- % Cross-Reactivity [1, 5]: <0.00001%
- Concentration Observed [1, 6]: 0.0 ng/mL

SMILES: COC(=O)[C@@H]1[C@H]2CC[C@@H](C[C@@H]1O)N2C [Ecogonine Methyl Ester]
- % Cross-Reactivity [1, 9]: 0.00000%
- Concentration Observed [1, 10]: ≦0.01 ng/mL

SMILES: CN1C[C@H](C(=O)N[C@]2(C)O[C@@]3(O)[C@@H]4CCCN4C(=O)[C@H](Cc4ccccc4)N3C2=O)C=C2c3cccc4[nH]cc(c34)C[C@H]21 [Ergotamine]
- % Cross-Reactivity [1, 9]: 0.00000%
- Concentration Observed [1, 10]: ≦0.01 ng/mL

SMILES: Cc1ccc(C(=O)c2ccc(CC(=O)O)n2C)cc1 [Tolmetin]
- % Cross-Reactivity [1, 5]: <0.00001%
- Concentration Observed [1, 6]: 0.0 ng/mL

SMILES: C=CCC1(C(C)CCC)C(=O)NC(=O)NC1=O (stereo not shown) [Secobarbital]
- % Cross-Reactivity [1, 5]: <0.00001%
- Concentration Observed [1, 6]: 0.0 ng/mL

SMILES: CC1(C)S[C@@H]2[C@H](NC(=O)[C@H](N)c3ccc(O)cc3)C(=O)N2[C@H]1C(=O)O [Amoxicillin]
- % Cross-Reactivity [1]: <0.00001%
- Concentration Observed [1]: 0.0 ng/mL

SMILES: CN1C[C@H](C(=O)O)C=C2c3cccc4[nH]cc(c34)C[C@H]21 [Lysergic Acid]
- % Cross-Reactivity [1]: 0.00000%
- Concentration Observed [1]: ≦0.01 ng/mL

SMILES: CCN(CC)C(=O)[C@H]1C=C2c3cccc4[nH]cc(c34)C[C@H]2N(C)C1 [Iso LSD]
- % Cross-Reactivity ([1]; Concentration Added 2,500 ng/ml, 100 × observed dose / concentration added): 0.04%
- Concentration Observed ([1]; Concentration Added 2,500 ng/ml, in human urine): 0.93 ng/mL

SMILES: CN/C(=N/CCSCc1nc[nH]c1C)NC#N [Cimetidine]
- % Cross-Reactivity [1]: <0.00001%
- Concentration Observed [1]: 0.0 ng/mL
